Data reported in PubChem BioAssay (NCI).
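Grown in 96-well plates, cells were treated for 48 hours with each compound at five concentrations. Insufficient inhibition: endpoint recorded as highest concentration tested. GI50: concentration for 50% inhibition of growth. TGI marks complete inhibition of growth.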

How the values were obtained:
Experiment in all cases: NCI anticancer screen, dose series, 48 h
[1] = system: MALME-3M melanoma
[2] = system: NCI-H460 lung
[3] = system: SK-MEL-28 melanoma
[4] = system: COLO 205 colon
[5] = system: KM12 colon
[6] = system: U251 CNS
[7] = system: SF-295 CNS
[8] = system: EKVX NSCLC
[9] = system: MDA-MB-231 breast
[10] = system: OVCAR-3 ovarian
[11] = system: SW-620 colon
[12] = system: TK-10 renal
[13] = system: CCRF-CEM leukemia
[14] = system: NCI/ADR-RES ovarian
[15] = system: OVCAR-8 ovarian
[16] = system: ACHN renal
[17] = system: SNB-19 CNS
[18] = system: NCI-H226 lung
[19] = system: NCI-H23 lung
[20] = system: HCT-15 colon
[21] = system: SK-MEL-5 melanoma
[22] = system: K-562 leukemia
[23] = system: NCI-H522 lung
[24] = system: MCF7 breast
[25] = system: MOLT-4 leukemia
[26] = system: MDA-MB-435
[27] = system: DU-145 prostate
[28] = system: OVCAR-5 ovarian
[29] = system: PC-3 prostate
[30] = system: HCC-2998 colon
[31] = system: SR leukemia
[32] = system: SF-539 CNS
[33] = system: SNB-75 CNS
[34] = system: CAKI-1 renal
[35] = system: HOP-62 NSCLC
[36] = system: HCT-116 colon
[37] = system: BT-549 breast
[38] = system: HL-60(TB) leukemia
[39] = system: HS 578T breast
[40] = system: T-47D breast
[41] = system: HT29 colon
[42] = system: SK-MEL-2 melanoma
[43] = system: SK-OV-3 ovarian
[44] = system: UO-31 renal
[45] = system: LOX IMVI melanoma
[46] = system: 786-0 renal
[47] = system: UACC-62 melanoma
[48] = system: UACC-257 melanoma
[49] = system: A498 renal
[50] = system: SF-268 CNS
[51] = system: RXF 393 renal
[52] = system: OVCAR-4 ovarian
[53] = system: IGROV1 ovarian
[54] = system: HOP-92 NSCLC
[55] = system: A549 NSCLC
[56] = system: RPMI-8226 leukemia
[57] = system: SN12C renal
[58] = system: M14 melanoma
[59] = system: MDA-N

## COc1cc2cc(Oc3ccc(NC(=O)c4cccc5c4OCCO5)cc3)c(C)nc2cc1OC
[1]
  GI50: 8.76 µM
  TGI: > 100 µM
[2]
  GI50: 8.36 µM
  TGI: > 100 µM
[3]
  GI50: 19.2 µM
  TGI: > 100 µM
[4]
  GI50: 4.95 µM
  TGI: > 100 µM
[5]
  GI50: 4.39 µM
  TGI: > 100 µM
[6]
  GI50: 5.03 µM
  TGI: > 100 µM
[7]
  GI50: 2910 nM
  TGI: > 100 µM
[8]
  GI50: 5.32 µM
  TGI: > 100 µM
[9]
  GI50: 6.06 µM
  TGI: > 100 µM
[10]
  GI50: 17.1 µM
  TGI: > 100 µM
[11]
  GI50: 49.9 µM
  TGI: > 100 µM
[12]
  GI50: 15.7 µM
  TGI: > 100 µM
[13]
  GI50: 4.18 µM
  TGI: > 100 µM
[14]
  GI50: 3.42 µM
  TGI: > 100 µM
[15]
  GI50: 3.68 µM
  TGI: 29.8 µM
[16]
  GI50: 4.01 µM
  TGI: 27.3 µM
[17]
  GI50: 15.5 µM
  TGI: > 100 µM
[18]
  GI50: 3.21 µM
  TGI: 21.2 µM
[19]
  GI50: 8.14 µM
  TGI: > 100 µM
[20]
  GI50: 7.87 µM
  TGI: > 100 µM
[21]
  GI50: 2920 nM
  TGI: > 100 µM
[22]
  GI50: 4.81 µM
  TGI: > 100 µM
[23]
  GI50: 4.28 µM
  TGI: 45.1 µM
[24]
  GI50: 6.27 µM
  TGI: > 100 µM
[25]
  GI50: 4.53 µM
  TGI: > 100 µM
[26]
  GI50: 7.05 µM
  TGI: > 100 µM
[27]
  GI50: 25.7 µM
  TGI: > 100000 nM
[28]
  GI50: 10.8 µM
  TGI: > 100 µM
[29]
  GI50: 2490 nM
  TGI: 16.2 µM
[30]
  GI50: 5.5 µM
  TGI: > 100 µM
[31]
  GI50: 4.12 µM
  TGI: > 100 µM
[32]
  GI50: 9.09 µM
  TGI: > 100000 nM
[33]
  GI50: 4.06 µM
  TGI: 53.1 µM
[34]
  GI50: 14.2 µM
  TGI: > 100000 nM
[35]
  GI50: 9.13 µM
  TGI: 94.6 µM
[36]
  GI50: 3.42 µM
  TGI: > 100 µM
[37]
  GI50: 1710 nM
  TGI: 4.42 µM
[38]
  GI50: 5.38 µM
  TGI: > 100 µM
[39]
  GI50: 5.64 µM
  TGI: > 100 µM
[40]
  GI50: 2820 nM
  TGI: 15.4 µM
[41]
  GI50: 6.12 µM
  TGI: > 100 µM
[42]
  GI50: 32.9 µM
  TGI: > 100 µM
[43]
  GI50: 49.8 µM
  TGI: > 100 µM
[44]
  GI50: 4.17 µM
  TGI: > 100 µM
[45]
  GI50: 9.28 µM
  TGI: > 100 µM
[46]
  GI50: 4.7 µM
  TGI: > 100 µM
[47]
  GI50: 6.24 µM
  TGI: > 100 µM
[48]
  GI50: 4.79 µM
  TGI: 63.5 µM
[49]
  GI50: 2060 nM
  TGI: 68.4 µM
[50]
  GI50: 14.4 µM
  TGI: > 100 µM
[51]
  GI50: 8.81 µM
  TGI: > 100 µM
[52]
  GI50: 3.32 µM
  TGI: 35 µM
[53]
  GI50: 64.5 µM
  TGI: > 100 µM
[54]
  GI50: 3.93 µM
  TGI: 30.6 µM
[55]
  GI50: 7.04 µM
  TGI: > 100 µM
[56]
  GI50: 2980 nM
  TGI: > 100 µM
[57]
  GI50: 8.4 µM
  TGI: > 100 µM
[58]
  GI50: 4.9 µM
  TGI: > 100 µM

## CCCC(=O)Nc1cc(/C=C/C(=O)N2CC(CCl)c3ccc(N)cc32)n(C)c1 (stereo not drawn)
[1]
  TGI: 0.507 µM
[2]
  TGI: 0.796 µM
[59]
  TGI: 675 nM
[4]
  TGI: 0.3 µM
[6]
  TGI: > 40.9 µM
[10]
  TGI: > 100 µM
[11]
  TGI: > 100 µM
[12]
  TGI: 0.471 µM
[17]
  TGI: > 43.2 µM
[18]
  TGI: > 100 µM
[19]
  TGI: 0.809 µM
[20]
  TGI: > 100 µM
[22]
  TGI: > 100 µM
[23]
  TGI: 0.0834 µM
[27]
  TGI: 2770 nM
[28]
  TGI: > 100 µM
[29]
  TGI: > 100 µM
[30]
  TGI: 0.34 µM
[31]
  TGI: 0.594 µM
[32]
  TGI: 429 nM
[34]
  TGI: 385 nM
[35]
  TGI: > 100 µM
[36]
  TGI: 14.1 µM
[37]
  TGI: 0.813 µM
[40]
  TGI: 0.601 µM
[41]
  TGI: > 100 µM
[42]
  TGI: 0.572 µM
[43]
  TGI: > 100 µM
[45]
  TGI: > 100 µM
[46]
  TGI: 2.92 µM
[47]
  TGI: 0.304 µM
[49]
  TGI: 0.0523 µM
[50]
  TGI: > 100 µM
[52]
  TGI: 0.697 µM
[55]
  TGI: > 100 µM
[57]
  TGI: 6.62 µM
[58]
  TGI: > 100 µM

## CCOC(=O)C1CCCCc2sc(N)c(C#N)c21 (stereo not drawn)
[1]
  TGI: > 100 µM
[2]
  TGI: > 100 µM
[59]
  TGI: > 100000 nM
[3]
  TGI: > 100 µM
[4]
  TGI: > 100 µM
[5]
  TGI: > 100 µM
[6]
  TGI: > 100 µM
[8]
  TGI: > 100 µM
[9]
  TGI: > 100 µM
[11]
  TGI: > 100 µM
[12]
  TGI: > 100 µM
[15]
  TGI: > 100 µM
[16]
  TGI: > 100 µM
[17]
  TGI: > 100 µM
[18]
  TGI: > 100 µM
[19]
  TGI: > 100 µM
[20]
  TGI: > 100 µM
[21]
  TGI: > 100 µM
[22]
  TGI: > 100 µM
[24]
  TGI: > 100 µM
[25]
  TGI: > 100 µM
[28]
  TGI: > 100 µM
[29]
  TGI: > 100 µM
[30]
  TGI: > 100 µM
[31]
  TGI: > 100 µM
[33]
  TGI: > 100 µM
[35]
  TGI: > 100 µM
[36]
  TGI: > 100 µM
[37]
  TGI: > 100 µM
[38]
  TGI: > 100 µM
[39]
  TGI: > 100 µM
[41]
  TGI: > 100 µM
[42]
  TGI: > 100 µM
[44]
  TGI: > 100 µM
[46]
  TGI: > 100 µM
[47]
  TGI: > 100 µM
[48]
  TGI: > 100 µM
[49]
  TGI: > 100 µM
[51]
  TGI: > 100 µM
[53]
  TGI: > 100 µM
[54]
  TGI: > 100 µM
[55]
  TGI: > 100 µM
[56]
  TGI: > 100 µM
[57]
  TGI: > 100 µM
[58]
  TGI: > 100 µM
